According to PubChem BioAssay (NCI):
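Test compounds were applied to cells in 96-well plates for 48 hours at 5 doses. GI50 marks 50% less growth. Definition used: TGI = concentration required for complete inhibition of growth.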

tested on: SR leukemia; assay: inhibition of tumour cell growth, NCI panel, 48 h

SMILES | GI50 [µM] | TGI [µM]
C=CCCCCOc1ccccc1-c1cnc(OCCCCC=C)n1C | 4.3 | 13.7
CC(C)C(=O)OCC1OC(n2c(Br)nc3c(=O)[nH]c(N)nc32)C(OC(=O)C(C)C)C1OC(=O)C(C)C (centres undefined) | – | > 100
COC(=O)/C=C(\C)CC(O)/C=C(\C)CCC=C(C)C (centres undefined) | – | 68.2

tested on: SW-620 colon; assay: inhibition of tumour cell growth, NCI panel, 48 h

SMILES | TGI [µM] | GI50 [µM]
CCCCCCOC(=O)/C=C/[C@]1(CO)C/C(=C/CC(C(C)C)C(C)C)C(=O)O1 | 27.7 | –
Cc1nc2c(nc1C)-c1[nH]c3c(c1C(=O)C2=O)CCCC3=O | 5.17 | –
Cn1c(=O)c2c(nc(Cc3ccccc3)n2CC(=O)O)n(C)c1=O | > 100 | –
C=CCCCCOc1ccccc1-c1cnc(OCCCCC=C)n1C | 11 | 2.97
CC(C)C(=O)OCC1OC(n2c(Br)nc3c(=O)[nH]c(N)nc32)C(OC(=O)C(C)C)C1OC(=O)C(C)C (centres undefined) | > 100 | –
C[C@H](CCC(=O)O)[C@H]1CC[C@H]2[C@@H]3CC[C@@H]4C[C@H](O)CC[C@]4(C)[C@H]3C[C@H](O)[C@]12C | > 100 | –
COC(=O)/C=C(\C)CC(O)/C=C(\C)CCC=C(C)C (centres undefined) | > 100 | –

tested on: T-47D breast; assay: inhibition of tumour cell growth, NCI panel, 48 h

SMILES | TGI [µM] | GI50 [µM]
CCCCCCOC(=O)/C=C/[C@]1(CO)C/C(=C/CC(C(C)C)C(C)C)C(=O)O1 | 37.5 | –
Cc1nc2c(nc1C)-c1[nH]c3c(c1C(=O)C2=O)CCCC3=O | 0.709 | –
Cn1c(=O)c2c(nc(Cc3ccccc3)n2CC(=O)O)n(C)c1=O | > 100 | –
C=CCCCCOc1ccccc1-c1cnc(OCCCCC=C)n1C | 29.5 | 3.53
CC(C)C(=O)OCC1OC(n2c(Br)nc3c(=O)[nH]c(N)nc32)C(OC(=O)C(C)C)C1OC(=O)C(C)C (centres undefined) | > 100 | –
C[C@H](CCC(=O)O)[C@H]1CC[C@H]2[C@@H]3CC[C@@H]4C[C@H](O)CC[C@]4(C)[C@H]3C[C@H](O)[C@]12C | 91.2 | –

tested on: TK-10 renal; assay: inhibition of tumour cell growth, NCI panel, 48 h

SMILES | TGI [µM] | GI50 [µM]
CCCCCCOC(=O)/C=C/[C@]1(CO)C/C(=C/CC(C(C)C)C(C)C)C(=O)O1 | 14 | –
Cc1nc2c(nc1C)-c1[nH]c3c(c1C(=O)C2=O)CCCC3=O | 34.8 | –
Cn1c(=O)c2c(nc(Cc3ccccc3)n2CC(=O)O)n(C)c1=O | > 100 | –
C=CCCCCOc1ccccc1-c1cnc(OCCCCC=C)n1C | 23 | 3.5
C[C@H](CCC(=O)O)[C@H]1CC[C@H]2[C@@H]3CC[C@@H]4C[C@H](O)CC[C@]4(C)[C@H]3C[C@H](O)[C@]12C | > 100 | –
COC(=O)/C=C(\C)CC(O)/C=C(\C)CCC=C(C)C (centres undefined) | > 100 | –

tested on: U251 CNS; assay: inhibition of tumour cell growth, NCI panel, 48 h

SMILES | TGI [µM]
Cc1nc2c(nc1C)-c1[nH]c3c(c1C(=O)C2=O)CCCC3=O | 2.92
Cn1c(=O)c2c(nc(Cc3ccccc3)n2CC(=O)O)n(C)c1=O | > 100
C[C@H](CCC(=O)O)[C@H]1CC[C@H]2[C@@H]3CC[C@@H]4C[C@H](O)CC[C@]4(C)[C@H]3C[C@H](O)[C@]12C | > 100
COC(=O)/C=C(\C)CC(O)/C=C(\C)CCC=C(C)C (centres undefined) | > 100

tested on: UACC-257 melanoma; assay: inhibition of tumour cell growth, NCI panel, 48 h

SMILES | TGI [µM] | GI50 [µM]
CCCCCCOC(=O)/C=C/[C@]1(CO)C/C(=C/CC(C(C)C)C(C)C)C(=O)O1 | 31.6 | –
Cc1nc2c(nc1C)-c1[nH]c3c(c1C(=O)C2=O)CCCC3=O | 4.83 | –
Cn1c(=O)c2c(nc(Cc3ccccc3)n2CC(=O)O)n(C)c1=O | > 100 | –
C=CCCCCOc1ccccc1-c1cnc(OCCCCC=C)n1C | 12.9 | 2.14
CC(C)C(=O)OCC1OC(n2c(Br)nc3c(=O)[nH]c(N)nc32)C(OC(=O)C(C)C)C1OC(=O)C(C)C (centres undefined) | > 100 | –
C[C@H](CCC(=O)O)[C@H]1CC[C@H]2[C@@H]3CC[C@@H]4C[C@H](O)CC[C@]4(C)[C@H]3C[C@H](O)[C@]12C | > 100 | –
COC(=O)/C=C(\C)CC(O)/C=C(\C)CCC=C(C)C (centres undefined) | > 100 | –

tested on: UACC-62 melanoma; assay: inhibition of tumour cell growth, NCI panel, 48 h

SMILES | TGI [µM] | GI50 [µM]
CCCCCCOC(=O)/C=C/[C@]1(CO)C/C(=C/CC(C(C)C)C(C)C)C(=O)O1 | 27.3 | –
Cc1nc2c(nc1C)-c1[nH]c3c(c1C(=O)C2=O)CCCC3=O | 3.25 | –
Cn1c(=O)c2c(nc(Cc3ccccc3)n2CC(=O)O)n(C)c1=O | > 100 | –
C=CCCCCOc1ccccc1-c1cnc(OCCCCC=C)n1C | 17.4 | 3.93
CC(C)C(=O)OCC1OC(n2c(Br)nc3c(=O)[nH]c(N)nc32)C(OC(=O)C(C)C)C1OC(=O)C(C)C (centres undefined) | > 100 | –
C[C@H](CCC(=O)O)[C@H]1CC[C@H]2[C@@H]3CC[C@@H]4C[C@H](O)CC[C@]4(C)[C@H]3C[C@H](O)[C@]12C | > 100 | –
COC(=O)/C=C(\C)CC(O)/C=C(\C)CCC=C(C)C (centres undefined) | > 100 | –

tested on: UO-31 renal; assay: inhibition of tumour cell growth, NCI panel, 48 h

SMILES | TGI [µM] | GI50 [µM]
CCCCCCOC(=O)/C=C/[C@]1(CO)C/C(=C/CC(C(C)C)C(C)C)C(=O)O1 | 17.8 | –
Cc1nc2c(nc1C)-c1[nH]c3c(c1C(=O)C2=O)CCCC3=O | 10.3 | –
Cn1c(=O)c2c(nc(Cc3ccccc3)n2CC(=O)O)n(C)c1=O | > 100 | –
C=CCCCCOc1ccccc1-c1cnc(OCCCCC=C)n1C | 20.7 | 3.09
CC(C)C(=O)OCC1OC(n2c(Br)nc3c(=O)[nH]c(N)nc32)C(OC(=O)C(C)C)C1OC(=O)C(C)C (centres undefined) | > 100 | –
C[C@H](CCC(=O)O)[C@H]1CC[C@H]2[C@@H]3CC[C@@H]4C[C@H](O)CC[C@]4(C)[C@H]3C[C@H](O)[C@]12C | > 100 | –
COC(=O)/C=C(\C)CC(O)/C=C(\C)CCC=C(C)C (centres undefined) | > 100 | –
